According to US10335409B2 (priority 2012, dated 2019):
Like-named read-outs stand apart in the source and are kept apart here.

Tests used:
Type in all cases: cell-based, hepatitis C virus
[1] = tested on: genotype 3a (S52) wild type transient HCV replicon in Huh-7-derived cells; experiment: Transient-transfected HCV replicon EC50, genotype 3a wild type; details: Hepatitis C virus; transient-transfected replicon genotype 3a wild type, 72 h; read-out: EC50 3A WT
[2] = tested on: genotype 1b (Con1) wild type transient HCV replicon in Huh-7-derived cells; experiment: Transient-transfected HCV replicon EC50, genotype 1b wild type; details: Hepatitis C virus, 72 h, read-out: EC50 1B WT
[3] = tested on: genotype 1a (H77) wild type transient HCV replicon in Huh-7-derived cells; experiment: Transient-transfected HCV replicon EC50, genotype 1a wild type; details: Hepatitis C virus, 72 h, read-out: EC50 1A WT
[4] = tested on: genotype 3a (S52) stable HCV replicon in Huh-7-derived cells; experiment: Stable subgenomic HCV replicon EC50, genotype 3a (Renilla luciferase); details: Hepatitis C virus, 72 h, read-out: EC50 3A RLUC
Experimental: (§1) Antiviral potency (EC50) was determined in both stable subgenomic HCV replicon cell lines and transient-transfected HCV replicon cells. The term half maximal effective concentration (EC50) refers to the concentration of a drug which induces a response halfway between the baseline and maximum after the exposure time specified below.
(§2) Stable subgenomic HCV replicons for genotype 1a, 1b, 2a, 3a, and 4a were established in Huh-7-derived cells as described by Lohmann et al (Lohmann V, Korner F, Koch J, et al Replication of subgenomic hepatitis C virus RNAs in a hepatoma cell line. Science 1999; 285:119-3) Each stable cell line contains a bicistronic HCV replicon that encodes a humanized Renilla luciferase (hRLuc) reporter gene fused to a selectable neomycin-resistance gene, followed by an EMCV IRES and the NS3-NS5B coding region of HCV. […] Luciferase activity was measured as a marker for intracellular HCV replication levels.
(§3) The genotype 1a stable replicon was derived from the H77 HCV strain and contained adaptive mutations P1496L and S2204I. The genotype 1b stable replicon was derived from the Con1 HCV strain and contained adaptive mutations E1202G, T1280I and K1846T. […] The genotype 3a stable replicon was derived from the S52 HCV strain and contained adaptive mutations P1121L, A1198T and S2210I (equivalent to S2204I in genotype 1). The genotype 4a stable replicon was derived from the ED43 HCV strain and contained adaptive mutations Q1691R and S2204I. All replicon cell lines were propagated in Huh-7-derived cells and maintained in Dulbecco's modified Eagle's Medium (DMEM) supplemented with 10% fetal bovine serum (FBS) and 0.5 mg/mL G418.
(§4) To perform EC50 assays, cells from each HCV replicon were dispensed into 384-well plates. Compounds were dissolved in DMSO at a concentration of 10 mM and diluted in DMSO using an automated pipetting instrument. Three-fold serially diluted compounds were directly added to the cells using an automated instrument. […] Seventy-two hours later, cells were lysed and Renilla luciferase activity were quantified as recommended by the manufacturer (Promega-Madison, Wis.). Non-linear regression was performed to calculate EC50 values.

[5] = tested on: genotype 1a (H77) stable HCV replicon in Huh-7-derived cells; experiment: Stable subgenomic HCV replicon EC50, genotype 1a (Renilla luciferase); details: Hepatitis C virus, stable replicon genotype 1a, 72 h, read-out: EC50 1A RLUC
Experimental: as §1, §2, §3, §4

[6] = tested on: genotype 2a (JFH-1) stable HCV replicon in Huh-7-derived cells; experiment: Stable subgenomic HCV replicon EC50, genotype 2a (Renilla luciferase); details: Hepatitis C virus, stable replicon genotype 2a, 72 h, read-out: EC50 2A RLUC
Experimental: as §1, §2, §3, §4

[7] = tested on: genotype 1b NS3/4a protease inhibitor resistant variant D168A transient HCV replicon in Huh-7-derived cells; experiment: Transient-transfected HCV replicon EC50, genotype 1b D168A; details: Hepatitis C virus, 72 h, read-out: EC50 1B D168A, transient-transfected replicon genotype 1b D168A resistant variant, 72 h
[8] = tested on: genotype 4a (ED43) stable HCV replicon in Huh-7-derived cells; experiment: Stable subgenomic HCV replicon EC50, genotype 4a (Renilla luciferase); details: Hepatitis C virus, 72 h, read-out: EC50 4A RLUC
Experimental: as §1, §2, §3, §4

[9] = tested on: genotype 1a NS3/4a protease inhibitor resistant variant R155K transient HCV replicon in Huh-7-derived cells; experiment: Transient-transfected HCV replicon EC50, genotype 1a R155K; details: Hepatitis C virus, 72 h, read-out: EC50 1A R155K, transient-transfected replicon genotype 1a R155K resistant variant, 72 h
[10] = tested on: genotype 1b (Con1) stable HCV replicon in Huh-7-derived cells; experiment: Stable subgenomic HCV replicon EC50, genotype 1b (Renilla luciferase); details: Hepatitis C virus, stable replicon genotype 1b, 72 h, read-out: EC50 1B RLUC
Experimental: as §1, §2, §3, §4

[11] = transient-transfected replicon genotype 1b wild type
[12] = transient-transfected replicon genotype 1a wild type

SMILES | EC50 [1] | EC50 [2, 11] | EC50 [3, 12] | EC50 [4] | EC50 [5] | EC50 [6] | EC50 [7] | EC50 [8] | EC50 [9] | EC50 [10] | EC50 [2] | EC50 [3]
CC[C@@H]1[C@@H]2CN(C(=O)[C@H](C(C)(C)C)NC(=O)O[C@@H]3[C@H]4CC[C@H](C4)[C@H]3CCCCCc3nc4ccc(OC)cc4nc3O2)[C@@H]1C(=O)N[C@]1(C(=O)NS(=O)(=O)C2(C)CC2)C[C@H]1C(F)F [Example 37, (1R,4S,4aR,8S,11 S, 12S,13R,25aR)-8-tert-butyl-N-[(1R,2R)-2-(difluoromethyl)-1-{[(1-methylcyclopropyl)sulfonyl]carbamoyl}cyclopropyl]-12-ethyl-17-methoxy-6,9-dioxo-2,3,4,4a,6,7,8,9,12,13,21,22,23,24,25,25a-hexadecahydro-1H,11H-1,4:10,13-dimethanoquinoxalino[2,3-k][1,10,3,6]benzodioxadiazacyclononadecine-11-carboxamide] | 69 nM | 22 nM | 29 nM | 575 nM | 24 nM | 16 nM | 159 nM | 15 nM | 51 nM | 22 nM | – | –
C[C@@H]1[C@@H]2CN(C(=O)[C@H](C(C)(C)C)NC(=O)O[C@@H]3C[C@@H]4C[C@@H]4[C@H]3CCCCCc3nc4ccc(C#N)cc4nc3O2)[C@@H]1C(=O)NC1(C(=O)NS(=O)(=O)C2(C)CC2)C[C@H]1C(F)F (stereo partly drawn) [Example 97, (1aS,2aR,6S,9S,10S,11R,23aR,23bS)-6-tert-butyl-15-cyano-N-[(2R)-2-(difluoromethyl)-1-{[(1-methylcyclopropyl)sulfonyl]carbamoyl}cyclopropyl]-10-methyl-4,7-dioxo-1a,2,2a,4,5,6,7,10,11,19,20,21,22,23,23a,23b-hexadecahydro-1H, 9H-8,11-methanocyclopropa[4′,5′]cyclopenta[1′,2′:18,19][1,10,3,6]dioxadiazacyclononadecino[11,12-b]quinoxaline-9-carboxamide] | 5.8 nM | 2.5 nM | 3.6 nM | 67 nM | 6.3 nM | 5.8 nM | 8.8 nM | 5.3 nM | 3.7 nM | 4.6 nM | – | –
CC[C@@H]1[C@@H]2CN(C(=O)[C@H](C(C)(C)C)NC(=O)O[C@@H]3C[C@H]3CCCCC(F)(F)c3nc4ccc(OC)cc4nc3O2)[C@@H]1C(=O)NC1(C(=O)NS(=O)(=O)C2(C)CC2)C[C@H]1CC (stereo partly drawn) [Example 93, (1aR,5S,8S,9S,10R,22aR)-5-tert-butyl-9-ethyl-N-[(2R)-2-ethyl-1-{[(1-methylcyclopropyl)sulfonyl]carbamoyl}cyclopropyl]-18,18-difluoro-14-methoxy-3,6-dioxo-1,1a,3,4,5,6,9,10,18,19,20,21,22,22a-tetradecahydro-8H-7,10-methanocyclopropa[18,19][1,10,3,6]dioxadiazacyclononadecino[11,12-b]quinoxaline-8-carboxamide] | 26 nM | 14 nM | 13 nM | 116 nM | 12 nM | 15 nM | 39 nM | 11 nM | 13 nM | 14 nM | – | –
CC[C@@H]1[C@@H]2CN(C(=O)[C@H](C(C)(C)C)NC(=O)O[C@@H]3C[C@H]3CCCCC(F)(F)c3nc4ccc(OC)cc4nc3O2)[C@@H]1C(=O)NC1(C(=O)NS(=O)(=O)C2CC2)C[C@H]1C(F)F (stereo partly drawn) [Example 94, (1aR,5S,8S,9S,10R,22aR)-5-tert-butyl-N-[(2R)-1-[(cyclopropylsulfonyl)carbamoyl]-2-(difluoromethyl)cyclopropyl]-9-ethyl-18,18-difluoro-14-methoxy-3,6-dioxo-1,1a,3,4,5,6,9,10,18,19,20,21,22,22a-tetradecahydro-8H-7,10-methanocyclopropa[18,19][1,10,3,6]dioxadiazacyclononadecino[1,12-b]quinoxaline-8-carboxamide] | 10 nM | 1.9 nM | 3.2 nM | 32 nM | 3.8 nM | 3.3 nM | 9.2 nM | 3 nM | 3.1 nM | 5.2 nM | – | –
CC[C@@H]1[C@@H]2CN(C(=O)[C@H](C(C)(C)C)NC(=O)O[C@@H]3C[C@H]3CCCCC(F)c3nc4ccc(OC)cc4nc3O2)[C@@H]1C(=O)N[C@]1(C(=O)NS(=O)(=O)C2(C)CC2)C[C@H]1C(F)F (stereo partly drawn) [Example 90, (1aR,5S,8S,9S,10R,22aR)-5-tert-butyl-N-[(1R,2R)-2-(difluoromethyl)-1-{[(1-methylcyclopropyl)sulfonyl]carbamoyl}cyclopropyl]-9-ethyl-18-fluoro-14-methoxy-3,6-dioxo-1,1a,3,4,5,6,9,10,18,19,20,21,22,22a-tetradecahydro-8H-7,10-methanocyclopropa[18,19][1,10,3,6]dioxadiazacyclononadecino[11,12-b]quinoxaline-8-carboxamide] | 43 nM | – | – | 114 nM | 12 nM | 8.8 nM | – | 10.4 nM | – | 9.6 nM | – | –
COc1ccc2nc3c(nc2c1)O[C@H]1CN(C(=O)[C@H](C(C)(C)C)NC(=O)O[C@@H]2C[C@H]2CCCCC3)[C@H](C(=O)N[C@]2(C(=O)NS(=O)(=O)C3CC3)C[C@H]2CCF)[C@@H]1C [Example 22, (1aR,5S,8S,9S,10R,22aR)-5-tert-butyl-N-[(1R,25)-1-[(cyclopropylsulfonyl)carbamoyl]-2-(2-fluoroethyl)cyclopropyl]-14-methoxy-9-methyl-3,6-dioxo-1,1a,3,4,5,6,9,10,18,19,20,21,22,22a-tetradecahydro-8H-7,10-methanocyclopropa[18,19][1,10,3,6]dioxadiazacyclononadecino[11,12-b]quinoxaline-8-carboxamide] | – | 2.6 nM | 8.6 nM | 727 nM | 15 nM | 27 nM | 242 nM | 11 nM | 48 nM | 7.5 nM | – | –
CC[C@@H]1C[C@]1(NC(=O)[C@@H]1[C@H](C)[C@@H]2CN1C(=O)[C@H](C(C)(C)C)NC(=O)O[C@@H]1C[C@H]1CCCCCc1nc3ccc(OC)cc3nc1O2)C(=O)NS(=O)(=O)C1(C)CC1 [Example 21, (1aR,5S,8S,9S,10R,22aR)-5-tert-butyl-N-[(1R,2R)-2-ethyl-1-{[(1-methylcyclopropyl)sulfonyl]carbamoyl}cyclopropyl]-14-methoxy-9-methyl-3,6-dioxo-1,1a,3,4,5,6,9,10,18,19,20,21,22,22a-tetradecahydro-8H-7,10-methanocyclopropa[18,19][1,10,3,6]dioxadiazacyclononadecino[11,12-b]quinoxaline-8-carboxamide] | – | – | – | 263 nM | 6.8 nM | 12 nM | 70 nM | 6.2 nM | 15 nM | 4.7 nM | 3.8 nM | 4.1 nM
